Results as given in patent publication US20240092756A1, “METHODS AND COMPOSITION FOR KRAS MODIFICATIONS” (2692372 ONTARIO, INC., priority 2020, published 2024).

How the values were obtained:
[1] = molecular target: KRAS G12C Lite (SEQ ID NO:3) (Homo sapiens, UniProt P01116, C118S/C51S/C80S/G12C/S136P/S39C); test: Intact mass analysis (LC-MS) of covalent modification, KRAS G12C Lite; assay type: binding; design: key to KRAS Lite Modification: a: KRAS Lite modified; details: for KRAS Lite Modification: intact mass spectrometry, covalent modification of KRAS G12C Lite; for covalent adduct mass, His-tagged KRAS G12C Lite: modification by one molecule of compound
Method: (§1) The covalent modification of the proteins with the compounds were evaluated using intact mass analysis by liquid chromatography-mass spectrometry instrument (LC-MS/MS).
(§2) The reaction solution (20 μL) was prepared in 96-well plate and contained the protein (2 μM), the compound (100 μM), HEPES buffer (20 mM, pH 8), 2% DMSO, 2% glycerol, and 150 mM NaCl. The reaction was allowed to proceed for 24 h at 25° C. The reaction solution (1 μL) was injected into the LC/MS/MS without any further sample preparation.
(§3) The LC-MS/MS instrument comprises of a Waters G2-XS quadrupole-time of flight (QTof) mass spectrometer and a Waters Acuity I-class Ultra-High Performance Liquid Chromatography (UPLC) system. The I-class UPLC system includes a binary solvent manager (BSM), and an Acquity sample manager (SM). The mobile phase consisted of: A) 0.1% (v/v) formic acid in MilliQ water; B) 0.1% (v/v) formic acid acetonitrile. Gradients were run over 5 min and proceeded as follows: A:B, 85:15, 0.0-0.7 min, 85:15→15:85, 0.7-1.5 min, 10:90, 1.5-4 min, 10:90→85:15, 4-4.5 min, 85:15, 4.5-5 min. The analytical column was a Waters BEH C4 column 1.7 μm (50×1 mm) column with pore sizes of 300 Å. The TOF MS data was collected in positive ion mode (m/z of 400-2000 Da) using MassLynx software (Waters).
(§4) The spectral deconvolution was performed using UNIFI software (Waters). The added mass of the protein upon covalent modification to cysteine residues were specified. Multiple modification of up to 8 cysteine was allowed. All the adducts with signal intensities of <2% of the base peak were ignored. The % modification was calculated as the adduct signal intensity over the total intensities of the protein peaks and the adducts.

[2] = molecular target: T1, KRAS G12C (SEQ ID NO:1 or SEQ ID NO:2) (Homo sapiens, UniProt P01116, G12C); test: Intact mass analysis (LC-MS) of covalent modification, KRAS G12C; assay type: binding; design: key to KRAS G12C Modification: b: KRAS G12C modified; details: for KRAS G12C Modification: intact mass spectrometry, covalent modification of KRAS G12C FL; for covalent adduct mass, His-tagged KRAS G12C: modification by one molecule of compound
T1 construct: purchased
Method: as §1, §2, §3, §4

KRAS G12C Lite = KRAS G12C Lite (Homo sapiens, UniProt P01116, C118S/C51S/C80S/G12C/S136P/S39C); test: Differential scanning fluorimetry, KRAS G12C Lite; assay type: binding; design: key: Y: protein destabilized; N: protein not destabilized; details: 37° C. 5 hours incubation
Method: (§5) KRas proteins at 0.05 mg/ml in buffer Hepes, 147 mM NaCl, 2% glycerol, 5 mM MgCl2, 1 mM EDTA, 10 μM GDP, pH 8.0 were incubated in the presence desired concentration of compounds (5% DMSO final concentration) at 37° C. for 5 hours. After incubation, Sypro Oange to a final concentration of 5× was added to each sample. 20 μl aliquots of samples were transferred PCR tubes, sealed with caps, and run in a BioRad CFX96 RTPCR thermocycler. In the instrument, the samples were heated at a rate of 1° C./min from 25 to 90 degrees. Fluorescence readings were taken every 1 degree. The data generated was exported and analyzed using GraphPad-Prism software. The denaturation curves were fit using a Boltzmann sigmoidal equation to calculate melting temperatures (Tm).

KRAS G12C [3] = molecular target: T2, KRAS G12C (Homo sapiens, UniProt P01116, G12C); test: SOS1-catalyzed KRAS coupled nucleotide exchange assay (Alpha technology); assay type: biochemical; design: His; key: A: KRAS G12C bound and modulated; details: inhibition of SOS1 mediated KRAS nucleotide exchange
Procedure, shortened: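 Alpha readout of c-RAF RBD binding to GTP-bound KRAS, normalized to DMSO. Method I: 20 nM GDP-KRAS G12C/C118A with compound 5 min, then 1.25 mM GTP + 500 nM SOS-1 30 min, pH 7.4 HEPES/MgCl2 buffer, 50 nM RBD. Method II: 50 nM GDP-KRAS G12C with compound 2 h, 1 mM GTP + 500 nM SOS-1 30 min, 2.5 nM GST-RBD; RT throughout.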

[4] = test system: phospho-ERK1/2 in MIA PaCa-2 cells (express KRAS G12C); test: ERK1/2 phosphorylation in MIA PaCa-2 cells; assay type: cell-based, human; design: key: X: KRAS G12C bound and modulated in cells
KRAS G12C [5] = molecular target: T2, KRAS G12C; test: Differential scanning fluorimetry, KRAS G12C; assay type: binding; design: purchased; key: Y: protein destabilized; N: protein not destabilized; details: 37° C. 5 hours incubation
Method: as §5

Row | Structure (SMILES) | KRAS Lite Modification [1] | KRAS G12C Modification [2] | KRAS G12C Lite DSF ΔTm (KRAS G12C Lite) | KRAS-SOS1 Nucleotide Exchange (KRAS G12C [3]) | covalent adduct mass, His-tagged KRAS G12C Lite [1] | covalent adduct mass, His-tagged KRAS G12C [2] | pERK - MIA PaCa-2 - (6 hours, 5 uM) [4] | KRAS G12C DSF ΔTm (KRAS G12C [5])
1 | CN1CCC[C@H]1COc1nc2c(c(N3CCN(S(=O)(=O)c4c(F)c(F)c(F)c(F)c4C(F)(F)F)CC3)n1)CCN(c1cccc3cccc(Cl)c13)C2 (stereo in doubt) [Compound 42A, (7R)-7-(8-chloro-1-naphthyl)-2-[[(1S,2S)-1-methylpyrrolidin-2-yl]methoxy]-4-[4-[2,3,4,5-tetrafluoro-6-(trifluoromethyl)phenyl]sulfonylpiperazin-1-yl]-6,8-dihydro-5H-pyrido[3,4-d]pyrimidine] | a | b | Y | A | – | – | – | –
2 | Cc1ccnc(C(C)C)c1-n1c(=O)nc(N2CCN(S(=O)(=O)c3c(F)c(F)c(F)c(F)c3C(F)(F)F)C[C@@H]2C)c2cc(F)c(-c3c(O)cccc3F)nc21 [Compound 6A, 6-fluoro-7-(2-fluoro-6-hydroxyphenyl)-1-(2-isopropyl-4-methylpyridin-3-yl)-4-((S)-2-methyl-4-((2,3,4,5-tetrafluoro-6-(trifluoromethyl)phenyl)sulfonyl)piperazin-1-yl)pyrido[2,3-d]pyrimidin-2(1H)-one] | a | b | – | A | 22,229 Da | 22,120 Da | X | –
3 | Cc1ccnc(C(C)C)c1-n1c(=O)nc(N2CCN(S(=O)(=O)c3c(F)c(F)c(F)c(F)c3OCF)C[C@@H]2C)c2cc(F)c(-c3c(O)cccc3F)nc21 [Compound 7A, 6-fluoro-7-(2-fluoro-6-hydroxyphenyl)-1-(2-isopropyl-4-methylpyridin-3-yl)-4-((S)-2-methyl-4-((2,3,4,5-tetrafluoro-6-(fluoromethoxy)phenyl)sulfonyl)piperazin-1-yl)pyrido[2,3-d]pyrimidin-2(1H)-one] | a | b | – | A | 22,209 Da | 22,100 Da | X | –
4 | Cc1ccnc(C(C)C)c1-n1c(=O)nc(N2CCN(S(=O)(=O)c3c(F)c(F)c(F)c(F)c3C(F)(F)F)C[C@@H]2C)c2cc(F)c(Cl)nc21 [Compound 11A, 7-chloro-6-fluoro-1-(2-isopropyl-4-methylpyridin-3-yl)-4-((S)-2-methyl-4-((2,3,4,5-tetrafluoro-6-(trifluoromethyl)phenyl)sulfonyl)piperazin-1-yl)pyrido[2,3-d]pyrimidin-2(1H)-one] | a | b | Y | – | – | – | – | Y
5 | Cc1ccnc(C(C)C)c1-n1c(=O)nc(N2CCN(S(=O)(=O)c3c(F)c(F)c(F)c(F)c3OC(F)F)C[C@@H]2C)c2cc(F)c(Cl)nc21 [Compound 12A, (S)-7-chloro-4-(4-((2-(difluoromethoxy)-3,4,5,6-tetrafluorophenyl)sulfonyl)-2-methylpiperazin-1-yl)-6-fluoro-1-(2-isopropyl-4-methylpyridin-3-yl)pyrido[2,3-d]pyrimidin-2(1H)-one] | a | b | Y | A | – | – | – | Y
6 | Cc1ccnc(C(C)C)c1-n1c(=O)nc(N2CC(NS(=O)(=O)c3c(F)c(F)c(F)c(F)c3C(F)(F)F)C2)c2cc(F)c(Cl)nc21 [Compound 13A, N-(1-(7-chloro-6-fluoro-1-(2-isopropyl-4-methylpyridin-3-yl)-2-oxo-1,2-dihydropyrido[2,3-d]pyrimidin-4-yl)azetidin-3-yl)-2,3,4,5-tetrafluoro-6-(trifluoromethyl)benzenesulfonamide] | a | b | Y | A | – | – | – | Y
